Columns and labels:
Format in all cases: toxicity, cell-based
HEK-293T = test: Incucyte cell viability with HEK293T; conditions: human, 10 µM, compound concentration 10 uM
Fibroblast = test: Incucyte cell viability with human fibroblast; conditions: 10 µM, compound concentration 10 uM
U2OS = test: Incucyte cell viability with U2OS; conditions: human, 10 µM, compound concentration 10 uM
Also: unitless GR value; below 1 slowed growth and below 0 cell loss.

| Structure (SMILES) | Growth Rate (HEK-293T; 0 h, replicate number 2) | Growth Rate (Fibroblast; 6 h, replicate number 1) | Growth Rate (Fibroblast; 6 h, replicate number 2) | Growth Rate (Fibroblast; 12 h, replicate number 1) | Growth Rate (U2OS; 0 h, replicate number 1) | Growth Rate (U2OS; 12 h, replicate number 1) | Growth Rate (HEK-293T; 0 h, replicate number 1) | Growth Rate (HEK-293T; 6 h, replicate number 1) | Growth Rate (HEK-293T; 12 h, replicate number 2) | Growth Rate (HEK-293T; 18 h, replicate number 1) | Growth Rate (HEK-293T; 18 h, replicate number 2) | Growth Rate (HEK-293T; 24 h, replicate number 1) | Growth Rate (HEK-293T; 24 h, replicate number 2) | Growth Rate (Fibroblast; 0 h, replicate number 2) | Growth Rate (Fibroblast; 18 h, replicate number 2) | Growth Rate (Fibroblast; 24 h, replicate number 1) | Growth Rate (U2OS; 18 h, replicate number 1) | Growth Rate (HEK-293T; 6 h, replicate number 2) | Growth Rate (Fibroblast; 18 h, replicate number 1) | Growth Rate (U2OS; 24 h, replicate number 2) | further results |
| --- | --- | --- | --- | --- | --- | --- | --- | --- | --- | --- | --- | --- | --- | --- | --- | --- | --- | --- | --- | --- | --- |
| Cc1cc2c(-c3ccco3)cnc(N[C@H]3CCN(C)C[C@@H]3C(=O)NC3CCCCC3)c2[nH]c1=O [GSK791] | -0.74 | 0.66 | 0.72 | 0.82 | -0.05 | -0.81 |  |  |  |  |  |  |  |  |  |  |  |  |  |  |  |
| CCc1ccc(N(CC(C)C)S(=O)(=O)c2ccc(OCC3CCOCC3)c(CO)c2)cc1 [GSK2981278] |  |  |  |  | 0.11 |  | -0.35 | 0.86 | 0.5 | 0.81 | 0.48 | 0.82 | 0.53 | 0.86 | 0.7 | 0.91 | 0.98 |  |  |  | Growth Rate (HEK-293T; 12 h, replicate number 1): 0.83; Growth Rate (Fibroblast; 24 h, replicate number 2): 0.85; Growth Rate (U2OS; 0 h, replicate number 2): 0.13; Growth Rate (U2OS; 6 h, replicate number 1): 0.9; Growth Rate (U2OS; 6 h, replicate number 2): 0.96 |
| CC(C)(C)OC(=O)CN(Cc1ccc(Cl)cc1)Cc1ccc([N+](=O)[O-])s1 [GSK-4112] | 0.51 | 0.7 | -0.08 | 0.71 |  | 0.82 | 0.04 | 0.86 | 0.91 | 0.76 | 0.75 |  | 0.92 |  | 0.06 | 0.72 | 0.94 | 0.58 | 0.74 |  | Growth Rate (HEK-293T; 12 h, replicate number 1): 0.78; Growth Rate (Fibroblast; 12 h, replicate number 2): 0.06; Growth Rate (Fibroblast; 24 h, replicate number 2): 0.19; Growth Rate (U2OS; 24 h, replicate number 1): 0.95 |
| CCCCCCCN(CCc1ccc(SC(C)(C)C(=O)O)cc1)C(=O)Nc1ccc(F)cc1F [GSK-9578] | -0.91 | 0.88 | 0.55 | 0.69 |  | 0.86 | -0.27 |  | 0.73 |  | 0.5 |  | 0.55 |  |  | 0.88 |  | 0.66 | 0.7 |  | Growth Rate (Fibroblast; 0 h, replicate number 1): 0.58; Growth Rate (Fibroblast; 12 h, replicate number 2): 0.91; Growth Rate (U2OS; 6 h, replicate number 1): 0 |
| C[C@@H](Oc1cc(-n2cnc3ccc(OC4CCN(C)CC4)cc32)sc1C(N)=O)c1ccccc1Cl [GSK-579289A] | 0.69 | 0.99 | 1 | 0.94 |  | 0.83 |  | 0.7 | 0.97 | 0.82 | 1 | 0.93 | 0.99 |  | 0.97 |  | 0.65 | 0.94 | 0.83 | 0.79 | Growth Rate (HEK-293T; 12 h, replicate number 1): 0.7; Growth Rate (U2OS; 0 h, replicate number 2): 0.48; Growth Rate (U2OS; 12 h, replicate number 2): 0.84; Growth Rate (U2OS; 24 h, replicate number 1): 0.93 |
| O=C(O)c1ccc(-c2c[nH]c3ncc(-c4ccccc4)cc23)cc1C1CCCC1 [GSK-650394] | 0.55 | 0.36 | -0.95 | -1 | 0.01 | 0.79 | 0.23 |  |  |  |  |  |  | -0.45 |  | 0.38 | 0.86 |  | 0.91 | 0.96 | Growth Rate (Fibroblast; 12 h, replicate number 2): 0.77; Growth Rate (U2OS; 6 h, replicate number 1): 0.39; Growth Rate (U2OS; 12 h, replicate number 2): 0.98; Growth Rate (U2OS; 18 h, replicate number 2): 0.92 |
| CN(C)c1cc2c(Nc3ccc4c(cnn4Cc4ccccc4)c3)ncnc2cn1 [GW282974X] | -0.53 |  |  |  | -0.05 | 0.77 | -1 |  | 0.95 | 0.8 | 0.77 | 0.59 | 0.61 |  | 0.86 | 0.77 | 0.83 |  |  | 0.65 | Growth Rate (Fibroblast; 0 h, replicate number 1): -1; Growth Rate (Fibroblast; 24 h, replicate number 2): 0.69; Growth Rate (U2OS; 6 h, replicate number 2): 0.77; Growth Rate (U2OS; 12 h, replicate number 2): 0.87; Growth Rate (U2OS; 18 h, replicate number 2): 0.91 |
| O=C1Nc2ccc(C(=O)c3ccco3)cc2C1=Cc1cc(Cl)c(O)c(Cl)c1 [GW406108X] | 0.57 |  |  |  |  | 0.5 | -1 | 0.79 | 0.31 | 0.41 | 0.17 | 0.24 | 0.11 |  | 0.83 | 0.7 | 0.4 | 0.56 | 1 | 0.38 | Growth Rate (HEK-293T; 12 h, replicate number 1): 0.25; Growth Rate (Fibroblast; 0 h, replicate number 1): -1; Growth Rate (Fibroblast; 12 h, replicate number 2): 1; Growth Rate (Fibroblast; 24 h, replicate number 2): 0.64; Growth Rate (U2OS; 6 h, replicate number 2): -0.19; Growth Rate (U2OS; 12 h, replicate number 2): 0.24; Growth Rate (U2OS; 18 h, replicate number 2): 0.33; Growth Rate (U2OS; 24 h, replicate number 1): 0.56 |
| Cc1cc(SCc2sc(-c3ccc(C(F)(F)F)cc3)nc2C)ccc1OCC(=O)O [GW501516] | -0.84 |  | 0.42 | 0.83 |  |  |  | 0.99 | 0.95 | 1 | 0.93 | 0.98 | 0.83 | 0.89 | 0.73 |  |  | 0.71 |  | 0.98 | Growth Rate (Fibroblast; 12 h, replicate number 2): 0.31; Growth Rate (Fibroblast; 24 h, replicate number 2): 0.83; Growth Rate (U2OS; 0 h, replicate number 2): 0.72; Growth Rate (U2OS; 6 h, replicate number 2): 0.95; Growth Rate (U2OS; 12 h, replicate number 2): 0.77; Growth Rate (U2OS; 18 h, replicate number 2): 0.92 |
| CCn1c(-c2nonc2N)nc2ccccc21 [GW549034X] | -0.14 |  |  |  | -1 |  | -1 |  |  |  |  |  |  | -0.96 |  |  |  |  |  | 0.93 | Growth Rate (Fibroblast; 0 h, replicate number 1): -1; Growth Rate (U2OS; 18 h, replicate number 2): 0.97 |
| Cc1nc(-c2ccc(C(F)(F)F)cc2)sc1C(=O)NCc1ccc(OC(C)(C)C(=O)O)cc1 [GW590735] | 0.73 | 0.76 | 0.99 | 0.82 | -0.11 | 0.91 | 0.96 |  | 0.93 |  | 0.92 |  | 0.72 | 0.77 |  | 0.83 | 0.93 | 0.83 | 0.71 |  | Growth Rate (U2OS; 6 h, replicate number 1): 0.91; Growth Rate (U2OS; 24 h, replicate number 1): 0.97 |
| CCS(=O)(=O)c1ccc(OC)c(Nc2ncc(-c3cccc(F)c3)o2)c1 [GW621970X] |  | -0.04 | 0.01 | 0.4 |  |  |  | -0.48 | 0.2 | 0.22 | 0.63 | 0.43 | 0.8 | -0.51 | 0.7 | 0.73 | 0.79 | -0.44 | 0.72 | 0.77 | Growth Rate (HEK-293T; 12 h, replicate number 1): -0.12; Growth Rate (Fibroblast; 12 h, replicate number 2): 0.24; Growth Rate (Fibroblast; 24 h, replicate number 2): 0.99; Growth Rate (U2OS; 6 h, replicate number 2): 0.74; Growth Rate (U2OS; 12 h, replicate number 2): 0.84; Growth Rate (U2OS; 18 h, replicate number 2): 0.86; Growth Rate (U2OS; 24 h, replicate number 1): 0.94 |
